The values below come from patent US11040981B2, “Pyrrolotriazine compounds and methods of inhibiting TAM kinases” (Syros Pharmaceuticals, Inc., priority 2017, dated 2021).

The target of one experiment is T1, MERTK (Homo sapiens, UniProt Q12866).
T1 sequence (Q12866 21-999): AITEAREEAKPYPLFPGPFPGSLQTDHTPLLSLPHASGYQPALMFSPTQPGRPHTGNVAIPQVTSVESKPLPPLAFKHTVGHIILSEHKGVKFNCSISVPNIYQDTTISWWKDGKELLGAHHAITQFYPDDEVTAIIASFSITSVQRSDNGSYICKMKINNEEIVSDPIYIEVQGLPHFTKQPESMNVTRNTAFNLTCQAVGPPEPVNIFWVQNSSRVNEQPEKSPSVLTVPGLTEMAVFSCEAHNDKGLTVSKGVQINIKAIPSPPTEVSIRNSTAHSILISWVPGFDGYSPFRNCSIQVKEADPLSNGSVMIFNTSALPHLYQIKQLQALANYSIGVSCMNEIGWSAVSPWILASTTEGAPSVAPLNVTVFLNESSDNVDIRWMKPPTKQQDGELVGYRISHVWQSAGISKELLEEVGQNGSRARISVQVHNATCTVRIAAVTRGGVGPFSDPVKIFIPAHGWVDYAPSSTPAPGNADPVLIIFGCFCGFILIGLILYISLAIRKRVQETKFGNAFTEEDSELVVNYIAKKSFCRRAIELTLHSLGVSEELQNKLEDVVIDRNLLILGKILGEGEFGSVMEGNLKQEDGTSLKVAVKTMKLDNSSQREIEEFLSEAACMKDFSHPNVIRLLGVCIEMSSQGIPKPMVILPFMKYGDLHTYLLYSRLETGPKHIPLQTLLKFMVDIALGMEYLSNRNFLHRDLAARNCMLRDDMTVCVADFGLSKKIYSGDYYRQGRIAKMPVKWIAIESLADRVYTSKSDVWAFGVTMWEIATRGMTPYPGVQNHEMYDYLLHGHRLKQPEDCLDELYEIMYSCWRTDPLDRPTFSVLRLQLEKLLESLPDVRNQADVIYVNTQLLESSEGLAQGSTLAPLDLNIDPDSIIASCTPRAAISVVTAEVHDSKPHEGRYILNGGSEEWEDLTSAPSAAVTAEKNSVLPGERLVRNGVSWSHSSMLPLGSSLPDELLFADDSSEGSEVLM
The experiment can be described thus: TR-FRET kinase activity assay, MERTK. The format is biochemical. Conditions: for IC50: TR-FRET activity assay, ATP at Km, 60 minutes, read-out: Mer IC50. An outline of the steps:
(§1)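 Each kinase phosphorylated a fluorescent-labelled tyrosine peptide in 50 mM HEPES pH 7.5, 10 mM MgCl2, 1 mM EGTA, 0.01% Brij 35, 1 mM DTT at RT, with ATP at Km for that enzyme. After 60 min, EDTA quench and Eu-anti-phosphotyrosine antibody (30 min, dark); IC50 from TR-FRET decrease.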
On the technique in general: Time-resolved FRET reads energy transfer from a long-lived donor to a nearby acceptor.

Another experiment has as its target T2, AXL (Homo sapiens, UniProt P30530).
T2 sequence (P30530 26-894): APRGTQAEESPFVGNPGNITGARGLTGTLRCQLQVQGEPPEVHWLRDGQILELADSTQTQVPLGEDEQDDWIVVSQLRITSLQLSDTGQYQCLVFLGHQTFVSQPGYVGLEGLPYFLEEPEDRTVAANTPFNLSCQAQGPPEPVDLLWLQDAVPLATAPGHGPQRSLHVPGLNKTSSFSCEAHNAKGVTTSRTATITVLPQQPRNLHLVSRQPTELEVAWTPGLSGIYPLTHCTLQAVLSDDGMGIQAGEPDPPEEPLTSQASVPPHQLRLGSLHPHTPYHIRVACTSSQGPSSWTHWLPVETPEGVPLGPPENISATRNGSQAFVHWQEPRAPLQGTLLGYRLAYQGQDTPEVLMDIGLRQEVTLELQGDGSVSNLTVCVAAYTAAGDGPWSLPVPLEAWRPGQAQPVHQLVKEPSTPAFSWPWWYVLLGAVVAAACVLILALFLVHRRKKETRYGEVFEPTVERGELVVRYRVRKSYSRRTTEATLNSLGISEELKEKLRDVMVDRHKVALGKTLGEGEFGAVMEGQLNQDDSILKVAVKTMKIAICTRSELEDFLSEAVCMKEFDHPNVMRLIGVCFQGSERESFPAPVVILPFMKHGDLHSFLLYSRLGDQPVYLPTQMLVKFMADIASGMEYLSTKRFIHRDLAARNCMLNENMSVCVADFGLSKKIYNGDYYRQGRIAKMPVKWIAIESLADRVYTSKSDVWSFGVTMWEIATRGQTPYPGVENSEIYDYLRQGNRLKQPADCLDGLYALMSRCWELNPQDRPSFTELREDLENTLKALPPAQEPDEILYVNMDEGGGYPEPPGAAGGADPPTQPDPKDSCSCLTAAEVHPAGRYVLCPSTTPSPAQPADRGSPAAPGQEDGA
In words: TR-FRET kinase activity assay, AXL. Particulars: ATP at Km, 60 minutes. The format is biochemical. An outline of the steps: as §1

[1] abbreviates: ratio calculated as FLT3 IC50/Mer IC50.

Structures are written as SMILES.

By IC50 is commonly meant the point on the concentration scale where inhibition reaches its midpoint. Consider `COC[C@H](C)Nc1ncc2c([C@H]3CC[C@@H](C(=O)N4CC5(COC5)C4)CC3)cc([C@H]3CC[C@H](O)CC3)n2n1` [Compound 579], for which the IC50 at MERTK is at most 100 nM; on AXL it was 100 to 1000 nM. In addition, on MERTK (setting [1]), the “FLT3/Mer ratio (FLT3 IC50/Mer IC50)” value is “+++ (“+++” represents a ratio of >100)”.
For `COC[C@H](C)Nc1ncc2c(-c3ccnc(N4CCOC(C(C)(C)O)C4)c3)cc([C@H]3CC[C@H](O)CC3)n2n1` (stereo partly drawn) [Compound 534] the same measures were at most 100 nM, at most 100 nM and “+++ (“+++” represents a ratio of >100)”.
For `COC[C@H](C)Nc1ncc2c([C@H]3CC[C@H](C(C)=O)CC3)cc([C@H]3CC[C@H](O)CC3)n2n1` [Compound 576] the same measures were at most 100 nM, 100 to 1000 nM and “+++ (“+++” represents a ratio of >100)”.
As to `COC[C@H](C)Nc1ncc2c(C3=CCOCC3)cc([C@H]3CC[C@H](O)CC3)n2n1` [Compound 141], the IC50 on MERTK and on AXL was at most 100 nM each time. Also, on MERTK (ratio of Mer to FLT3: FLT3 IC50/Mer IC50), the “FLT3/Mer ratio (FLT3 IC50/Mer IC50)” value is on record as “+++ (“+++” represents a ratio of >100)”.
Regarding `COCC(C)Nc1ncc2c(-c3ccc4[nH]cnc4c3)cc(C3CCC(O)CC3)n2n1` (stereo not drawn) [Compound 553], the half-maximal inhibitory concentration (IC50) on MERTK and on AXL was at most 100 nM each time. Further, the “FLT3/Mer ratio (FLT3 IC50/Mer IC50)” value at MERTK (setting [1]) is on record as “+++ (“+++” represents a ratio of >100)”.
For `C[C@@H](COC(F)F)Nc1ncc2c(-c3ccc(S(C)(=O)=O)nc3)cc([C@H]3CC[C@H](O)CC3)n2n1` [Compound 513], the IC50 on MERTK and on AXL was at most 100 nM each time. In addition, on MERTK (setting [1]), the “FLT3/Mer ratio (FLT3 IC50/Mer IC50)” value is “+++ (“+++” represents a ratio of >100)”.
`CC(COc1ccccc1)Nc1ncc2c(-c3cnn(C4COC4)c3)cc([C@H]3CC[C@H](O)CC3)n2n1` (mixture of isomers) [Compound 528]: the IC50 at MERTK and at AXL was at most 100 nM throughout. For the same compound, the “FLT3/Mer ratio (FLT3 IC50/Mer IC50)” value at MERTK (setting [1]) is given as “+++ (“+++” represents a ratio of >100)”.
For the compound `Cc1nnc(C(C)(C)n2cc(-c3cc([C@H]4CC[C@H](O)CC4)n4nc(N[C@@H](C)COC(F)F)ncc34)cn2)o1` [Compound 517], the IC50 at MERTK and against AXL was at most 100 nM each time. Also, the “FLT3/Mer ratio (FLT3 IC50/Mer IC50)” value on MERTK (setting [1]) is “+++ (“+++” represents a ratio of >100)”.
With `COC[C@H](C)Nc1ncc2c(-c3cnn(C4COC4)c3)cc([C@H]3CC[C@@H](O)CC3)n2n1` [Compound 564], the IC50 on MERTK and against AXL was at most 100 nM throughout. The “FLT3/Mer ratio (FLT3 IC50/Mer IC50)” value at MERTK (setting [1]) is “++ (“++” represents a ratio of between 10 and 100)”.
For the compound `COC[C@H](C)Nc1ncc2c(-c3ccnc(N4CCN(CC5COC5)CC4)c3)cc([C@H]3CC[C@H](O)CC3)n2n1` [Compound 512], the 50% inhibitory concentration (IC50) at MERTK and on AXL was at most 100 nM in each case. For the same compound, the “FLT3/Mer ratio (FLT3 IC50/Mer IC50)” value at MERTK (setting [1]) is recorded as “+++ (“+++” represents a ratio of >100)”.
